According to PMC9977316, “The kidney drug transporter OAT1 regulates gut microbiome–dependent host metabolism” (JCI Insight, 2023):

Experiments:
OAT1 [1] = target: T1, OAT1 (Mus musculus, UniProt Q8VC69); test: Tc-99m MAG3 imaging and postmortem γ counts in Oat1-KO and WT mice; assay type: in vivo; conditions: WT vs Oat1-KO
T1 construct: from tissue; host or cells: living mice (kidney proximal tubule); Oat1-KO versus WT
T1 sequence (Q8VC69 1-545): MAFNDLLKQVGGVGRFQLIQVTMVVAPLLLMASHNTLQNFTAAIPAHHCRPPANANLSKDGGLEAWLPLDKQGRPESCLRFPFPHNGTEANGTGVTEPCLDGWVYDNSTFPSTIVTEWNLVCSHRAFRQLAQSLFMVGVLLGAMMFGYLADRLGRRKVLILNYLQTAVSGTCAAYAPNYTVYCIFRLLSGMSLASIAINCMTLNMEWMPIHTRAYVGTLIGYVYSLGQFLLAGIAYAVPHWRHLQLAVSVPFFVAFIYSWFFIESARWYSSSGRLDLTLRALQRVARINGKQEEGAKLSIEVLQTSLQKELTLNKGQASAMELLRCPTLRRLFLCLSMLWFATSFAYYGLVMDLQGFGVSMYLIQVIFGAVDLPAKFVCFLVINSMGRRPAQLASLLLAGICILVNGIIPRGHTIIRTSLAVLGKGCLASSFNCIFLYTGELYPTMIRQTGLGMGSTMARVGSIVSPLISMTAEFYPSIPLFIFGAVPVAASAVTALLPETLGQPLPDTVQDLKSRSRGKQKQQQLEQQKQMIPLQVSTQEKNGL
Description: Live-imaging experiments were performed with the In Vivo Imaging Shared Resource at the Moore’s Cancer Center at the UCSD. Mice were transported from the vivarium to the In Vivo Imaging Shared Resource. In total, 100 μCi of Tc-99m MAG3 was injected by tail vein into mice prior to imaging. Adult, male KO (n = 5) and WT mice (n = 5) were imaged in 5 separate pairs containing 1 KO mouse and 1 WT mouse each. Mice were initially weighed and anesthetized (2% isoflurane, 200 mL/min flow of O2). Mice were placed on their backs on the high-resolution γ imager (γ imager; BioSpace) fitted with a high-resolution, low-energy collimator. For 30 minutes, time-activity curves were collected from the kidneys, liver, and bladder. Following imaging, blood, urine, kidneys, liver, and spleen were isolated and weighed from each mouse for radioactive assessment using a γ counter.

OAT1 [2] = target: T2, OAT1 (Homo sapiens, UniProt Q4U2R8); design: The full-length protein was expressed as GFP fusion in HEK293 cells to check for protein expression; GFP; FLAG (inferred from capture on anti-flag antibody beads); made in house; host or cells: HEK293 cells, third-generation lentiviral vector; conditions: cited from earlier work
T2 sequence (Q4U2R8 1-563): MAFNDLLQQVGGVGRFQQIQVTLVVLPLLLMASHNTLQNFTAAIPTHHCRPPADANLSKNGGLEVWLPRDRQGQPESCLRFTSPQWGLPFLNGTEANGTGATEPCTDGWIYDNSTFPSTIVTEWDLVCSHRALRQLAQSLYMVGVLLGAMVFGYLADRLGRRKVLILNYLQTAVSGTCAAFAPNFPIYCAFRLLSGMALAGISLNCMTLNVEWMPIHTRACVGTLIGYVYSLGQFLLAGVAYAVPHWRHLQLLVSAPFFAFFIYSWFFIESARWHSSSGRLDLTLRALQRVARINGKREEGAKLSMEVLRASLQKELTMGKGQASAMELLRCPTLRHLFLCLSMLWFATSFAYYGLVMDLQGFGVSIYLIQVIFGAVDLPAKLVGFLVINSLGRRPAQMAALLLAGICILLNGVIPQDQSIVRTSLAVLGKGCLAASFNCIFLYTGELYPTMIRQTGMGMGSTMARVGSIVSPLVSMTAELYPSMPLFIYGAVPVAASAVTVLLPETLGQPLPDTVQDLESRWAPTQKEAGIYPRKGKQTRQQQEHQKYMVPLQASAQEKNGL

Row | Molecule | bladder levels, postmortem γ counts scaled to weight (OAT1 [1]; 4 of 5 pairs) | blood levels, postmortem γ counts scaled to weight (OAT1 [1]; 4 of 5 pairs) | time to maximal bladder levels (OAT1 [1]; tail-vein injection, 30 minutes, γ camera) | In vitro cell–based transport assay (OAT1 [2])
1 | Tc-99m mercaptoacetyl-triglycine [Tc-99m MAG3] | higher in the WT mice | higher in the KO mice | WT bladders reached their maximal levels of Tc-99m MAG3 more quickly than the Oat1-KO mice | 
2 | NCCc1c[nH]c2ccc(O)cc12 [Serotonin] |  |  |  | × (17)
